Read-outs that look alike come from different tables or passages of the source.
What was measured:
Gram-positive bacteria = assay: Clinical and microbiological efficacy evaluation of TEI treatment; type: in vivo, human; conditions: for Eradication rate of Gram-positive bacteria: eradication or presumed eradication
Method: According to the guiding principles of Clinical Trial Technology of antibacterial agents (2014 edition) ([Writing Group of Guidance for Clinical Trials of Antibacterial Drugs, 2014]), the judgment on efficacy evaluation includes clinical efficacy and microbiological efficacy. Clinical efficacy was evaluated after 7–14 days of medication. Clinical efficacy was evaluated in terms of clinical cure and clinical failure. Clinical cure is defined as the complete resolution or significant improvement of pretreatment infection signs and symptoms such that no additional antimicrobial therapy is needed. Clinical failure is defined as no apparent response or an incomplete response that needs additional antibiotic therapy for infections. The microbiological efficacy was evaluated as eradication, presumed eradication, no eradication, and presumed no eradication. Microbiological success was defined as eradication or presumed eradication of Gram-positive bacteria ([Writing Group of Guidance for Clinical Trials of Anti-bacterial Drugs, 2014]). The primary outcomes were clinical cure and microbiological success rates at the end of treatment (EOT).
Univariate and multivariate logistic regression analyses were used to select the covariables of the regression model. We established the regression model for predicting the factors influencing the eradication of Gram-positive bacteria. In univariate analysis, the χ^2 test or the Fisher exact test was used to compare the categorical variables. Continuous variables were compared by using the Mann–Whitney U test. Covariates with p values <0.1 were included in the multivariate logistic regression analysis (backward procedure, based on the p-value of the predictor removed) ([Hammitt et al., 2019]). Multivariate logistic regression analysis was used to screen for independent risk factors. SPSS software automatically screened out the independent variables when the optimal balance was reached between the fitting degrees of the prediction model.
Independent risk factor variables were used to establish regression equations and calculate prediction probabilities. The receiver operating characteristic (ROC) curves of multivariate factors were drawn; the area under the curve (AUC), cutoff point, Youden index, sensitivity, and specificity were used to evaluate their predictive value for predicting the factors influencing the eradication of Gram-positive bacteria.

[1] = From the text: Patients’ data were obtained from the inpatients’ medical database.

Teicoplanin
Cases of presumed eradication of Gram-positive bacteria (Gram-positive bacteria; CRRT group): 4 cases | Clinical cure rate (Gram-positive bacteria; CRRT group (n = 40)): 67.5% | Eradication rate of Gram-positive bacteria (Gram-positive bacteria; CRRT group): 77.5% | Clinical cure rate (Gram-positive bacteria; non-CRRT group (n = 66)): 72.7% | Eradication rate of Gram-positive bacteria (Gram-positive bacteria; non-CRRT group): 81.8% | 28-day hospital mortality rate ([1]; CRRT group): 22.5% | 28-day hospital mortality rate ([1]; non-CRRT group): 15.2%

— article PMC8957950 (Frontiers in Pharmacology, 2022)
